Experiments:
[1] = test system: animal models; conditions: literature; cited from earlier work
[2] = test system: non-iron-overloaded, bile duct-cannulated rat; assay: Iron excretion in the non-iron-overloaded, bile duct-cannulated rat; format: in vivo; conditions: 150 μmol/kg p.o., solution in 40% Cremophor-H2O, rats fasted for 24 hours
Procedure: Preparation of Drugs. Drug solutions were prepared in 60% water, 40% Cremophor RH-40.
Initial testing of 1 was performed in the non-iron-overloaded, bile duct-cannulated rat [J. Med. Chem., Vol. 34, Bergeron et al, “Synthesis and Biological Evaluation of Hydroxamate-Based Iron Chelators,” pages 3182-3187 (1991)]. The drug was prepared as a solution in 40% Cremophor-H2O and administered at a dose of 150 μmol/kg p.o. The rats were fasted for 24 hours before dosing. The efficiency of iron excretion induced by 1 was 2.4±0.92%.

[3] = test system: iron-overloaded primate model; conditions: po, 150 umol/kg, 24 h
Procedure: The drug was prepared as a solution in 40% Cremophor-H2O and administered at a dose of 1.50 μmol/kg p.o. The monkeys were fasted for 24 hours before dosing.

Row | SMILES | clearing iron [1] | efficiency of iron excretion [2] [%] | efficiency (iron excretion) [3] [%]
1 | CC(=O)N(O)CCC[C@@H]1NC(=O)[C@H](CCCN(O)C(C)=O)NC1=O [rhodotorulic acid] | reasonably active |  | 
2 | O=C(N[C@H]1COC(=O)[C@@H](NC(=O)c2cccc(O)c2O)COC(=O)[C@@H](NC(=O)c2cccc(O)c2O)COC1=O)c1cccc(O)c1O [enterobactin] | only marginally effective |  | 
3 | O=C(O)[C@H]1CSC(c2ccc(O)cc2O)=N1 [Compound 1, 4,5-dihydro-2-(2,4-dihydroxyphenyl)-thiazole-4(S)-carboxylic acid] |  | 2.4±0.92 | 4.2±1.4

From US8008502B2, “Thiazoline acid derivatives” (University of Florida Research Foundation, Inc., priority 1998, dated 2011)
